Earlier results, collected in patent publication US20250073197A1, “THE ANTI-INFLAMMATORY ROLE OF CANNABIDIOL, RETINYL PALMITATE, BETA-CARYOPHYLLENE AND TRIBUTYRIN WHEN ADMINISTERED IN CONJUNCTION” (FLG Sciences, LLC, priority 2023, published 2025).

How the values were obtained:
[1] = use in the disease named in Table 1 (Diabetes or Dyslipidemia)
[2] = tested on: 24,000 gene probes

| Molecule | Side effect [1] | further results |
| --- | --- | --- |
| Cn1c(COc2ccc(CC3SC(=O)NC3=O)cc2)nc2ccccc2c1=O (stereo not shown) [Balaglitazone] | Edema |  |
| CC(C)(Oc1ccc(CCNC(=O)c2ccc(Cl)cc2)cc1)C(=O)O [Bezafibrate] | Hepatotoxicity |  |
| CC(C)OC(=O)C(C)(C)Oc1ccc(C(=O)c2ccc(Cl)cc2)cc1 [Fenofibrates] | Pancreatitis |  |
| CCc1ccc(CCOc2ccc(CC3SC(=O)NC3=O)cc2)nc1 (stereo not shown) [Pioglitazone] | Edema |  |
| CN(CCOc1ccc(CC2SC(=O)NC2=O)cc1)c1ccccn1 (stereo not shown) [Rosiglitazone] | Edema |  |
| cannabidiol [CBD] |  | gene transcripts down-regulated ([2]; Illumina gene array): 524; gene transcripts up-regulated ([2]; Illumina gene array): 680; genes downregulated 2-fold or more ([2]; Illumina gene array): 38; transcripts upregulated 2-fold or more ([2]; Illumina gene array): 123; gene transcripts significantly regulated ([2]; Illumina gene array, 24,000 gene probes): 1204 |
